“Also recorded” adds a separate entry of the source.
What was measured:
[1] = Penetration test: active substance penetration through enzymatically isolated apple leaf cuticles in diffusion cells, radioactively marked active substance; assay type: in vitro ADME, apple trees of the Golden Delicious variety
Description: In this test, the penetration of active substances through enzymatically isolated cuticles of apple tree leaves was measured.
Leaves which were cut off in the stage of full development of apple trees of the Golden Delicious variety were used. The isolation of the cuticles was effected in a manner such that • first, leaf disks marked on the underside with dye and punched out were filled by means of vacuum infiltration with a pectinase solution (0.2 to 2% strength by weight) buffered to a pH between 3 and 4, • sodium azide was then added and • the leaf disks thus treated were allowed to stand until disintegration of the original leaf structure and detachment of the noncellular cuticle.
Thereafter, only those cuticles of the upper sides of the leaves which were free of stomata and hairs were further used. They were washed several times alternately with water and a buffer solution at pH 7. The cleaned cuticles obtained were finally drawn onto small Teflon plates and smoothed and dried with a gentle air jet.
In the next step, the cuticle membranes thus obtained were placed in stainless steel diffusion cells (=transport chambers) for membrane transport investigations. For this purpose, the cuticles were placed by means of forceps centrally on the silicone grease-coated edges of the diffusion cells and closed with a likewise greased ring. The arrangement was chosen so that the morphological outside of the cuticles faced outward, i.e. toward the air, while the original inside faced the interior of the diffusion cell. The diffusion cells were filled with water or with a mixture of water and solvent.
For determining the penetration, in each case 10 μl of a spray liquor of the composition mentioned in the examples were applied to the outside of a cuticle.
In each case the solvents listed below in the table (tap water or a mixture with 20% by weight of acetone/80% by weight of tap water) were used in the spray liquors.
After the application of the spray liquors, in each case the solvent was allowed to evaporate, and in each case the chambers were then turned around and placed in thermostated trays, air having a defined temperature and atmospheric humidity being blown onto the outside of the cuticle. The incipient penetration therefore took place at a relative humidity of 60% and a set temperature of 20 or 25° C. The active substance penetration was measured with radioactively marked active substance.

[2] = tested on: crop plant; test: Crop plant tolerance tests; assay type: in vivo; conditions: compared with other alkyl ester additives; no data shown
[3] = penetration of tebuconazole 0.3 g/l, without or with 2.0 g/l penetration enhancer, acetone/tap water 20/80% by weight, apple leaf cuticles, T = 20-25° C., rel. humidity 56-60%, mean of 4-8 repetitions

## CCCCOCCOP(=O)(OCCOCCCC)OCCOCCCC [TBEP, tributoxyethyl phosphate]
[1]; summary of tables 1 and 2, 2.0 g/l TBEP with 0.3 g/l fungicide
  Effect of the penetration enhancer on uptake of the active substances (in words): considerable increase in uptake of the active substances; also recorded: advantageously higher increase in uptake of active substances than the penetration enhancers of the prior art
[2]
  Crop plant tolerance: more tolerant than other alkyl ester additives

## O=C(NCc1ncc(C(F)(F)F)cc1Cl)c1c(Cl)cccc1Cl [fluopicolid, 2,6-dichloro-N-[[3-chloro-5-(trifluoromethyl)-2-pyridinyl]methyl]benzamide]
[1]; apple tree, 3 h, 0.3 g/l
  % Penetration (after hours): 3 hours: 0.1 (3) %
[1]; apple tree, 24 h, 0.3 g/l
  % Penetration (after hours): 24 hours: 0.6 (24) %

## OC(Cc1ccccc1Cl)(Cn1nc[nH]c1=S)C1(Cl)CC1 (centres unmarked) [prothioconazole]
[1]; after 3 h, 0.3 g/l active substance, without or with 2.0 g/l TBEP, acetone/tap water 20/80% by weight, apple leaf cuticles, T = 20-25° C., rel. humidity 56-60%, mean of 4-8 repetitions
  % Penetration (after hours): 3 hours: 0.04 (3) %
[1]; after 24 h, 0.3 g/l active substance, without or with 2.0 g/l TBEP, acetone/tap water 20/80% by weight, apple leaf cuticles, T = 20-25° C., rel. humidity 56-60%, mean of 4-8 repetitions
  % Penetration (after hours): 24 hours: 0.6 (24) %

## CC(C)(C)C(O)(CCc1ccc(Cl)cc1)Cn1cncn1 (centres unmarked) [tebuconazole]
[1]; [3]
  % Penetration (after 3 hours): 0.9%
  % Penetration (after 24 hours): 1.1%
